Source: patent publication US20200368280A1, “EPIGENETIC MODIFIERS FOR USE IN CELLULAR IMMUNOTHERAPY” (Viracta Therapeutics, Inc., priority 2018, published 2020)
Read-outs that look alike come from different tables or passages of the source.

Experiments:
[1] = tested on: exhausted T cell population (CD8+ T cells) from PBMC; assay: T cell exhaustion assay, CEFT-exhausted PBMC restimulated with DC and CEFT; format: cell-based, human; details: for IFN-γ release by restimulated CD8+ T cells (percent IFNγ secreting CD8+ cells, FIG. 11) / CD8+ T cell proliferation (FIG. 9B, 9C): restimulated with CEFT; for CD8+ T cell proliferation (FIG. 9B, 9C): compared to CEFT alone
Method: FIGS. 12A, 12B and 12C show the effects of anti-PD-1 and nanatinostat treatment on IFN-γ, TNFα, and TGFβ. Isolated PBMC were exhausted with CEFT-stimulation for 10 days prior to being restimulated with moDC and CEFT peptide with compound treatment for an additional 4 days. Luminex analysis was performed and levels of IFN-γ (FIG. 12A), TNFα (FIG. 12B), and TGFβ (FIG. 12C). Dotted lines denote anti-PD-1 control treatment and vehicle control treatment as indicated.
To test whether nanatinostat can be used to reverse T cell exhaustion, whether by itself or in combination with PD-1, a standard T cell exhaustion assay was used. Peripheral Blood Mononuclear Cells (PBMC) were separated over a density gradient from 3 single human donor buffy coats. PBMC were stimulated with pooled pathogen-specific class I peptides (CEFT) to generate an exhausted T cell population. Cells were then re-stimulated with CEFT and autologous monocyte-derived dendritic cells for a further time before testing in a final re-stimulation assay using replenished DC and CEFT to monitor reversal of exhaustion. […] One dose of HDAC inhibitor was tested and a single dose of anti-PD-1 was used. An unstimulated control and a reference HDAC inhibitor were also plated. Cultures were pulsed with 3H-thymidine and proliferation assessed. Supernatants were also harvested for cytokine analysis by multiplex. Samples of cells were stained with an antibody panel directed against CD4, CD8, PD-1, IL-15R, TIGIT, CD45RO, CCR7, IFNγ and CD25 and characterized using flow cytometry in order to confirm their exhausted phenotype, and whether expression levels were altered following exposure to the combination therapies. PBMC were also phenotyped using the above panel at day 0 to determine the initial frequency of cell populations.

[2] = tested on: BALB/c splenocytes (FoxP3+, CD25+ T regulatory cells); assay: FACS analysis of splenocytes treated 24 hours with HDAC inhibitor; format: cell-based, BALB/c mice
Method: Test agents were added to each plate at the concentrations indicated in the table below and were incubated for 24 hours prior to FACS analysis. FACS analysis consisted of the following markers: live/dead, CD45, CD3, CD4, CD25 and FoxP3.

T cells in CT26 tumors = assay: FACS analysis of CT26 tumors on Day 9; format: in vivo, Balb/c mice
Method: (§1) Nanatinostat alone and in combination with anti-mPD-1 was evaluated in the CT26 subcutaneous tumor model in Balb/c mice. Animals were dosed orally with nanatinostat at 25 mg/kg daily, and intraperitoneally with anti-mPD-1 at 10 mg/kg on a bi-weekly schedule. 8 animals per group were selected and tumors were collected for FACS and qPCR analysis on Day 9, 12-13 hours post dose. The remaining animals continued to receive their respective treatments until Day 21.
On Day 9, N=8/arm were harvested tumors for PD assessment 12-13 hours post last dose. Half of each tumor was placed in transfer buffer for FACS analysis.

CT26 subcutaneous tumor = format: in vivo; details: nanatinostat 25 mg/kg orally daily, anti-mPD-1 10 mg/kg intraperitoneally
Method: as §1
144 female Balb/c mice (date of birth: Aug. 1, 2017) purchased from Jackson Laboratories were inoculated for the study. Animals were housed for a stabilization period of 5 days prior to inoculation. Animals were housed in individual HEPA ventilated cages (Innocage® IVC, Innovive USA). Fluorescent lighting was provided on a 12-hour cycle. Temperature and humidity was monitored and recorded daily and maintained to the maximum extent possible between 68-74° F. (20-23° C.) and 30-70% humidity, respectively. 2920X.10 18% soy irradiated rodent feed (Envigo) and autoclaved acidified water (pH2.5-3) was provided ad libitum.
CT26 cells were cultured as per ATCC's recommended culture protocol. For inoculation, cells were washed in PBS, counted, and resuspended in cold PBS at a concentration of 250,000 viable cells/100 μl. Cell suspension was kept on ice during transport to the vivarium. Cells were prepared for injections by withdrawing cells into a chilled 1 ml syringe fitted with a 26G 7/8 (0.5 mm×22 mm) needle.
Animals were prepared as needed for injection using standard approved anesthesia, and the mice were shaved prior to injection. One mouse at a time was immobilized and the site of injection was disinfected with an alcohol swab. 100 μl of the cell suspension was subcutaneously injected into the rear flank of the mouse. Mice were marked by ear tagging.
Animals were monitored daily for palpable tumors, or any changes in appearance or behavior. Once tumors were palpable, they were measured using calipers. Tumor volume was calculated using the following equation (longest diameter×shortest diameter^2)/2.

[3] = tested on: gene expression in CT26 tumors; assay: qPCR gene expression analysis of CT26 tumors on Day 9; format: in vivo, Balb/c mice; details: Day 9, tumors
Method: as §1
On Day 9, N=8/arm was harvested tumors for PD assessment. Half of each tumor was flash frozen for subsequent qPCR analysis. Fragments of flash frozen tumors were transferred in RLT PLUS buffer (Qiagen) and loaded into labelled and prefilled tubes with beads and homogenized for 60 seconds at maximum speed. RNA was extracted with AllPrep DNA/RNA Mini kit, purchased from Qiagen, according to the manufacturer's protocol. RNA quantity and purity was evaluated by Synergy 2 Multi-Mode Reader according to the Biotec Protocol. 750 ng total RNA from each sample was used to generate cDNA in a 20 μl reaction. The reaction was performed to the standard of Superscript III First-Strand Synthesis protocol by ThermoFisher by using Eppendorf Mastercycler Pro. […] Gene expression data was analyzed on the ViiA7 system using ABI 2.1 software to generate the raw data. […]

[4] = 1 uM, 24 hours, percentage ± SD
[5] = combination vs anti PD-1 only, nanatinostat only vs vehicle
[6] = 100 nM, 24 hours, percentage ± SD
[7] = listed as head prints 'nM' (1 nM), 24 hours, percentage ± SD

Compound | IFN-γ release by restimulated CD8+ T cells (percent IFNγ secreting CD8+ cells, FIG. 11) [1] | CD45+ [2, 4] | cell viability (FIG. 10A, 10B) ([1]; compared to Entinostat) | CD8+ T cell proliferation (FIG. 9B, 9C) [1] | CXCR3 expressing cell population in CD4+ T cells in tumors (FIG. 5A) (T cells in CT26 tumors; [5]) | CXCR3 expressing cell population in CD8+ T cells in tumors (FIG. 5B) (T cells in CT26 tumors; [5]) | CD8+ T-cell population in tumors (T cells in CT26 tumors; compared to the vehicle group) | T cell infiltration in tumors (FIG. 4) (T cells in CT26 tumors; compared to vehicle or anti-PD-1 group, p-value 0.007 for both) | inhibition of tumor growth (CT26 subcutaneous tumor; Day 3) | inhibition of tumor growth (CT26 subcutaneous tumor; Day 4) | inhibition of tumor growth (CT26 subcutaneous tumor; Day 7) | inhibition of tumor growth (CT26 subcutaneous tumor; Day 9) | inhibition of tumor growth (CT26 subcutaneous tumor; Day 9, listed as nanatinostat) | KLRC2 expression on NK cells (FIG. 8) [3] | CD45+ [2, 6] | CD45+ CD3+ [2, 6] | CD45+ ([2]; 500 nM, 24 hours, percentage ± SD) | concentration at which the suppressive effect on FoxP3, CD25+ T cells was still seen ([2]; at least as low as) | CD45+ [2, 7] | CD45+ CD3+ CD4+ FoxP3+ [2, 7]
Nc1ccccc1NC(=O)c1ccc(CNC(=O)OCc2cccnc2)cc1 [Entinostat, reference compound] | reduced | 99.1 ± 0.27% |  |  |  |  |  |  |  |  |  |  |  |  |  |  |  |  |  | 
O=C(NO)c1cnc(N2CC3C(C2)C3NCc2ccc3cc(F)ccc3n2)nc1 (centres unmarked) [Nanatinostat, 2-(6-{[(6-Fluoroquinolin-2-yl)methyl]amino}-3-azabicyclo[3.1.0]hex-3-yl)-N-hydroxypyrimidine-5-carboxamide] | little effect | 99.6 ± 0.17% | well tolerated | negative effect | no significant difference | no significant difference | higher | significantly increased | 16.20% | 23.31% | 38.94% | 33.81% | 33% | increased | 99.6 ± 0.12% | 94 ± 0.83% | 99.5 ± 0.29% | ≤ 100 nM | 98.6 ± 0.36% | 12 ± 1.51%
anti-PD-1 (Pembrolizumab): anti-PD-1 antibody used in the human T cell exhaustion assay [reference compound] |  |  |  | restored proliferation |  |  |  |  |  |  |  |  |  |  |  |  |  |  |  | 
